Assay: Dynamic vapor sorption (moisture sorption) experiment
Settings: for stability in the moisture sorption experiment (XRPD of dried sample): after DVS
Procedure: Dynamic vapor sorption experiments were performed on Form A, Form B, and Form D. Table 103 provides the results of the DVS experiment.

CC(C)N1CCN(c2ccc(Nc3ncc4cc5n(c4n3)C3(CCCCC3)CNC5=O)nc2)CC1 [Compound II, 2′-((5-(4-isopropylpiperazin-1-yl)pyridin-2-yl)amino)-7′,8′-dihydro-6′H-spiro[cyclohexane-1,9′-pyrazino[1′,2′:1,5]pyrrolo[2,3-d]pyrimidin]-6′-one]
stability in the moisture sorption experiment (XRPD of dried sample) (dried at 60° C. and 0% RH): remained in Form B

CC(C)N1CCN(c2ccc(Nc3ncc4cc5n(c4n3)C3(CCCCC3)CNC5=O)nc2)CC1 [Form B]
moisture adsorbed (60% RH): 5.8 wt %
moisture adsorbed (90% RH): 5.9 wt %
% wt change at 60% RH (DVS, 60% RH): 5.8 % wt
% wt change at 90% RH (DVS, 90% RH): 5.9 % wt
stability in the moisture sorption experiment (XRPD of dried sample) (dried at 60° C. and 0% RH): stable
XRPD (post DVS) (after moisture sorption experiment, dried at 60° C. and 0% RH): Form B

From US11357779B2 (G1 Therapeutics, Inc., priority 2018, dated 2022)
